Laboratory results published in BindingDB's records for patent US20240076297 (Merck Sharp & Dohme, 2024).

Tests used:
[1] = target: Adenosine receptor A2a (Homo sapiens, UniProt P29274); assay: Measurement of A2A or A2B Binding Affinity Using Radioligand Binding
Protocol: (§1) Method (A): 148 μL (5 μg/mL) membranes (Perkin Elmer, Cat. No. RBHA2aM400UA) and 2 μL compounds of the invention to be tested (test compound) were transferred to individual wells of a 96-well polypropylene assay plate and incubated for 15 to 30 min at room temperature. [3H] SCH58261 ((7-(2-phenylethyl)-5-amino-2-(2-furyl)-pyrazolo-[4,3-e]-1,2,4-triazolo[1,5-c]pyrimidine)) was diluted in assay buffer (50 mM Tris pH 7.4, 10 mM MgCl2, 0.005% Tween20) to a concentration of 4 nM and 50 μL transferred to each well of the assay plate. To define total and non-specific binding, wells containing 1% DMSO and 1 μM ZM241385 (Tocris Bioscience, Cat. No. 1036) respectively, were also included. The assay plate was incubated at room temperature for 60 min with agitation. […] The plate was incubated for at least 20 min, and then the amount of radioactivity remaining in each well was determined using a TopCount (Perkin Elmer) scintillation counter. After normalization to total and non-specific binding, the percent effect at each compound concentration was calculated. The plot of percent effect versus the log of compound concentration was analyzed electronically using a 4-parameter logistic fit based on the Levenberg-Marquardt algorithm to generate IC50 values.

[2] = target: T1, Adenosine receptor A2b (Homo sapiens, UniProt P29275); assay: as above
T1 sequence (P29275 whole entry): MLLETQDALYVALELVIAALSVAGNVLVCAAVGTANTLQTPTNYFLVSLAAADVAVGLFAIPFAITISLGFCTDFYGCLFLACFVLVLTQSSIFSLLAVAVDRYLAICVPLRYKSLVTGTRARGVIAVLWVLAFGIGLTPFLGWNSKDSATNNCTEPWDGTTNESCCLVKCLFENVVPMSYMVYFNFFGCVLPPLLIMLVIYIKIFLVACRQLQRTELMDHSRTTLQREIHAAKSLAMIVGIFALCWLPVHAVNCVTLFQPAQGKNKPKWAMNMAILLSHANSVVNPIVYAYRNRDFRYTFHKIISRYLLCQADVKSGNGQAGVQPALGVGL
Protocol: as §1

Adenosine receptor A2a, sequence (P29274 whole entry): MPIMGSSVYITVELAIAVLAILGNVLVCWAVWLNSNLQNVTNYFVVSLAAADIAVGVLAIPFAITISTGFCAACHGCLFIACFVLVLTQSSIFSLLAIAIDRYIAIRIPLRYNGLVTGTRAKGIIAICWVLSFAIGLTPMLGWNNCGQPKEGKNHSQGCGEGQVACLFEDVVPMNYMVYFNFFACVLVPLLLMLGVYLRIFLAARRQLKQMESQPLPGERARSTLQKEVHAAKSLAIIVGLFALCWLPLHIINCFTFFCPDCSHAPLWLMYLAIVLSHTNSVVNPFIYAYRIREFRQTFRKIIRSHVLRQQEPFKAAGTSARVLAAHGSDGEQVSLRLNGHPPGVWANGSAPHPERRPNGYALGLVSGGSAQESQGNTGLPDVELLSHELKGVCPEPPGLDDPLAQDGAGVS

IC50 [1]: 0.0109 µM | IC50 [2]: 0.0813 µM
Compound: COc1cccc2c1nc(N)n1nc(CCS(=O)(=O)C(F)(F)F)nc21 [US20240076297, Example 13.5]
